According to patent publication US20250136617A1 (The Regents of the University of Colorado, A Body Corporate, priority 2022, published 2025):
Read-outs that look alike come from different tables or passages of the source.

Columns and labels:
[1] = system: CEM-CCRF human lymphoblast cells; assay: Transwell migration assay in CEM-CCRF lymphoblasts; type: cell-based
Description: Thus, to confirm CXCR4 functional activity, UCUF-728 was evaluated in a 96 w transwell migration assay in CEM human lymphoblast cells.
CEM-CCRF (ATCC CCL-119) were suspended in RPMI 1640 (Corning; 10-040-CV) at 5.0×10^5 cells/mL and allowed to incubate in cell culture incubator at 37° C. with 5% CO2 for one hour. […] Plates were reassembled and placed in a cell culture incubator at 37° C. with 5% CO2 for three hours. After incubation, Multi-Screen plate was disassembled and 100 μl of solution was collected from compound receiver tray and transferred to 96 well luminescent plate (Thermo Scientific; 265302) and an equal volume of ATPLite Istep luminescence reagent (Perkin Elmer, Waltham, MA; 6016731) was added to each well. Luminescence was measured using the CLARIOstar Plus (BMG LABTECH Inc., Cary, NC).

CXCR4 = CXCR4 (Homo sapiens, UniProt P61073); assay: β-arrestin recruitment, 384-well, Tango CXCR4-bla U2OS cells, normalized to SDF-1α; type: cell-based; parameters: host or cells: U2OS; settings: for Emax: U2OS; for ß-arrestin recruitment Emax (%): normalized to maximal SDF-1α response
Chain of CXCR4 (P61073 whole entry): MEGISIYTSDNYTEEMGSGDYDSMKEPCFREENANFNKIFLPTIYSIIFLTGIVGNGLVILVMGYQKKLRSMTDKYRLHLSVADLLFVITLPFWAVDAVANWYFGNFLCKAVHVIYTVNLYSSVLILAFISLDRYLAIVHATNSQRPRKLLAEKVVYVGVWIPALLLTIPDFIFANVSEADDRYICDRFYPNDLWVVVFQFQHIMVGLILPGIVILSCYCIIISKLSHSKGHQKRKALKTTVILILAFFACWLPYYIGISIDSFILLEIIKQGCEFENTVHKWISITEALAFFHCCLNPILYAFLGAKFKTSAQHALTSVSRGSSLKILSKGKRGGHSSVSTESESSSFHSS
Description: Tango™ CXCR4-bla U2OS Cells (Invitrogen; K1779) were used for (β-arrestin recruitment assays and maintained as a monolayer culture in McCoy's 5a (Corning; 10-050-CV) supplemented with 10% dialyzed Fetal Bovine Serum (Gibco; 26400-044), 0.1 mM MEM Non-essential amino acids solution, 25 mM HEPES solution (Corning; 25-060-CI), 1 mM Sodium Pyruvate (Gibco; 11360-070), 200 μg/mL Zeocin selection reagent (Gibco; R25001), 50 μg/mL Hygromycin B (Gibco, 10687010), and 100 μg/mL Geneticin (G418 Sulfate) (Gibco, 10131035). U2OS cells were subcultured twice weekly by 0.05% Trypsin-EDTA treatment (Corning; 25-051-CI) and passaged to continue exponential growth phase for cell signaling assays. All cell cultures were maintained in cell culture incubators at 37° C. with 5% CO2. CHO-K1 CXCR4 cells (DiscoverX, Fremont, CA, USA) were used for cAMP inhibition assays and maintained as a monolayer culture in DMEM/F12 (Corning; 10-091-CV) supplemented with 10% Fetal Bovine Serum (Corning; 35-011-CV) and 100IU penicillin, […] streptomycin sulfate (Corning; 30-002-CI) and […] G418 (Gibco; 101310350. Cells were subculture 2 times weekly by o.o5% Trypsin-EDTA treatment (Corning; 25-051-CI) and passaged to continue exponential growth phase for cell signaling assays. All cell cultures were maintained in cell culture incubators at 37° C. with 5% CO2.CEM-CCRF cells (ATCC CCL-119) were used in both the migration and calcium flux assays and were cultured in growth media consisting of RPMI 1640 (Corning; 10-040-CV) supplemented with 10% Fetal Bovine Serum (Corning; 35-011-CV), and 100 IU penicillin, […] streptomycin sulfate (Corning; 30-002-CI). Cells were maintained in suspension and sub-cultured twice weekly to maintain cell densities between 0.8×10^6 cells/mL and 2.5×10^6 cells/mL to maintain exponential growth phase. Cells were harvested for use in migration and calcium flux assays at 2.0×10^6 cells/mL to 2.5×10^6 cells/mL and resuspended in assay media to desired density for respective experiments.
Tango™ CXCR4-bla U2OS Cells were resuspended in assay media consisting of DMEM (Corning; Corning, NY) supplemented with 1% dialyzed Fetal bovine serum, 0.1 mM MEM Non-essential amino acids solution, 25 mM HEPES solution (Corning; Corning, NY), 1 mM Sodium Pyruvate and 100 IU penicillin, […] streptomycin sulfate (Corning; Corning, NY) at a density of 3.0×10^5 cells/ml. Assay media FreeStyle 293 expression Medium (Gibco; 12338018) was used for testing the thiadiazine scaffold CXCR4 agonists. Cells suspension was dispensed at 30 μl per well into assay plate and incubated overnight in a cell culture incubator at 37° C. with 5% CO2. […] Following overnight incubation, LiveBlazer FRET B/G Loading Kit (Invitrogen; K1095) working reagent was prepared according to supplier guidelines and 6 μl of solution was dispensed into each well; 8 μL of solution for testing the thiadiazine scaffold CXCR4 agonists. Assay plate was covered and incubated in a dark place for two hours and Fluorescence Intensity was measured using the BMG LABTECH CLARIOstar Plus (BMG LABTECH Inc., Cary, NC) according to the LiveBlazer FRET B/G Loading Kit excitation and emission measurement guidelines.
Results are expressed as mean±SD for 3 to 5 independent experiments. Statistically significant differences in gene expression between two groups were assessed by Student's T-test, ANOVA with an appropriate post hoc test was be used for multiple comparisons. P<0.05 was considered to be statistically significant. All concentration response curves were analyzed to determine EC50 and Emax using the following equation:
where Y is the normalized response (0-100%), X is the log of concentration of compound tested, and the Hill slope is equal to 1.0% and 100% activity are specific to each assay. […]

[2] = Homo sapiens, read-out: Migration CEM EC50
[3] = normalized to SDF-1, read-out: TANGO β-arrestin Emax (%)
[4] = normalized to SDF-1, read-out: TANGO β-arrestin EC50
[5] = normalized to SDF-1α, read-out: ß-arrestin recruitment EC50
[6] = Homo sapiens, read-out: Migration CEM EC50 (μM)

Structure (SMILES) | Emax (CXCR4; [3]) [%] | EC50 (CXCR4; [4]) [µM] | further results
CCOc1ccccc1-c1nnc2n1N=C(c1ccc(N3CCCC3)cc1)CS2 [Entry 14] | > 70 | < 5 | Migration CEM Emax (%) [1]: B (35 < B < 70); EC50 [1, 2]: < 5 µM
CCOc1ccccc1-c1nnc2n1N=C(c1ccc(NC(=O)C3CCCC3)cc1)CS2 [Entry 33] |  | > 10 | 
COc1cccc(C2=Nn3c(nnc3-c3ccccc3OC)SC2)c1 [Entry 85] |  |  | EC50 (CXCR4; [5]): 10.7 µM; ß-arrestin recruitment Emax (%) (CXCR4): 40%
CCOc1ccccc1-c1nnc2n1N=C(c1ccc(OC)c(OC)c1)CS2 [Entry 57] | 35 to 70 | < 5 | 
CCOc1ccccc1-c1nnc2n1N=C(c1ccc(OC)cc1)CS2 [Entry 3] | > 70 | < 5 | Emax ([1]; Homo sapiens): 35 to 70%; EC50 [1, 6]: < 5 µM
COc1ccc(OC)c(-c2nnc3n2N=C(c2ccc(OC)c(OC)c2)CS3)c1 [Entry 56] |  | < 5 | TANGO β-arrestin Emax (%) (CXCR4; normalized to SDF-1): B (35 < B < 70)
C=CCOc1ccc(C2=Nn3c(nnc3-c3ccccc3OCC)SC2)cc1 [Entry 6] | > 70 | < 5 | Migration CEM Emax (%) [1]: B (35 < B < 70); EC50 ([1]; read-out: Migration CEM EC50): < 5 µM
CCOc1ccccc1-c1nnc2n1N=C(c1ccc(NC3CCCC3)cc1)CS2 [Entry 45] |  | < 5 | Migration CEM Emax (%) [1]: C (C ≤ 35); EC50 ([1]; read-out: Migration CEM EC50): < 5 µM; TANGO β-arrestin Emax (%) (CXCR4; normalized to SDF-1): C (C ≤ 35); EC50 (CXCR4; [5]): 1.4 µM; ß-arrestin recruitment Emax (%) (CXCR4): 31%
COc1ccccc1-c1nnc2n1N=C(c1ccc(N(C)C)cc1)CS2 [Entry 13] | > 70 | < 5 | Emax ([1]; Homo sapiens): 35 to 70%; EC50 [1, 2]: < 5 µM; Emax (CXCR4; read-out: ß-arrestin recruitment Emax (%)): 91%; EC50 (CXCR4; [5]): 0.06 µM
CCCCc1ccc(C2=Nn3c(nnc3-c3ccccc3OC)SC2)cc1 [Entry 19] |  | 5 to 50 | TANGO β-arrestin Emax (%) (CXCR4; normalized to SDF-1): C (C ≤ 35); EC50 (CXCR4; [5]): 14.1 µM; ß-arrestin recruitment Emax (%) (CXCR4): 12%
CCOc1ccccc1-c1nnc2n1N=C(c1ccc(N3CCC3)cc1)CS2 [Entry 28] | 35 to 70 | < 5 | 
CCOc1ccccc1-c1nnc2n1N=C(c1ccc(C(=O)Nc3ccccc3)cc1)CS2 [Entry 69] | < 35 | < 5 | Emax ([1]; Homo sapiens): 35 to 70%; EC50 [1, 2]: < 5 µM
COc1ccc(OC)c(-c2nnc3n2N=C(c2ccc(N4CCC4)cc2)CS3)c1 [Entry 80] | < 35 | < 5 | Emax ([1]; Homo sapiens): 35 to 70%; EC50 [1, 2]: < 5 µM
CCOc1ccccc1-c1nnc2n1N=C(c1ccc(NC(=O)C3CC3)cc1)CS2 [Entry 32] |  | < 5 | Migration CEM Emax (%) [1]: C (C ≤ 35); EC50 ([1]; read-out: Migration CEM EC50): < 5 µM; TANGO β-arrestin Emax (%) (CXCR4; normalized to SDF-1): A (A ≥ 70)
COc1ccc(-c2nnc3n2N=C(c2ccccc2)CS3)cc1 [Entry 59] |  | > 80 | 
COc1ccc(C2=Nn3c(nnc3-c3ccccc3OC)SC2)c(OC)c1 [Entry 54] | 35 to 70 | < 5 | 
CCOc1ccccc1-c1nnc2n1N=C(c1ccc(N3CCCC3=O)cc1)CS2 [Entry 63] | < 35 | < 5 | Emax ([1]; Homo sapiens): 35 to 70%
COc1ccccc1-c1nnc2n1N=C(c1ccc(N3CCOCC3)cc1)CS2 [Entry 16] |  | 5 to 50 | Migration CEM Emax (%) [1]: A (A ≥ 70); EC50 ([1]; read-out: Migration CEM EC50): 5 to 50 µM; TANGO β-arrestin Emax (%) (CXCR4; normalized to SDF-1): A (A ≥ 70)
CCOc1ccccc1-c1nnc2n1N=C(c1ccc(NC3CCC3)cc1)CS2 [Entry 44] | > 70 | < 5 | 
c1ccc(C2=Nn3c(nnc3-c3ccccc3)SC2)cc1 [Entry 50] |  | > 80 | 
CCOc1ccccc1-c1nnc2n1N=C(c1ccc(N3CCCC3)cc1)CS2 [compound 24] |  |  | Migration CEM Emax (%) [1]: A (A ≥ 70)

Structure (SMILES) | Emax (CXCR4; [3]) [%] | EC50 (CXCR4; [4]) [µM] | further results
CCOc1ccccc1-c1nnc2n1N=C(c1ccc(NCC3CC3)cc1)CS2 [Entry 48] | < 35 | < 5 | EC50 [1, 2]: > 10 µM
CCOc1ccccc1-c1nnc2n1N=C(c1ccc(N3CCCC3)cc1)CS2 [Entry 15] |  | < 5 | Migration CEM Emax (%) [1]: A (A ≥ 70); EC50 ([1]; read-out: Migration CEM EC50): < 5 µM; TANGO β-arrestin Emax (%) (CXCR4; normalized to SDF-1): A (A ≥ 70)
CCOc1ccccc1-c1nnc2n1N=C(c1ccc(N)cc1)CS2 [Entry 26] |  | > 10 | 
CCOc1ccccc1-c1nnc2n1N=C(c1ccc(NCC3CCCC3)cc1)CS2 [Entry 49] |  | > 10 | EC50 ([1]; read-out: Migration CEM EC50): > 10 µM
COc1ccc(C2=Nn3c(nnc3-c3ccccc3OC)SC2)cc1 [Entry 55] | 35 to 70 | < 5 | 
CCOC(=O)CNc1ccc(C2=Nn3c(nnc3-c3ccccc3OCC)SC2)cc1 [Entry 40] |  | < 5 | Migration CEM Emax (%) [1]: C (C ≤ 35); EC50 ([1]; read-out: Migration CEM EC50): 5 to 50 µM; TANGO β-arrestin Emax (%) (CXCR4; normalized to SDF-1): C (C ≤ 35); EC50 (CXCR4; [5]): > 5 µM
COCCOc1ccc(C2=Nn3c(nnc3-c3ccccc3OC)SC2)cc1 [Entry 8] | < 35 | < 5 | Emax ([1]; Homo sapiens): < 35%; EC50 [1, 6]: < 5 µM
COc1ccccc1-c1nnc2n1N=C(c1ccc(-c3ccccc3)cc1)CS2 [Entry 20] | > 70 | 5 to 50 | 
COc1ccccc1-c1nnc2n1N=C(c1ccccc1)CS2 |  | > 80 | 
CCc1ccc(C2=Nn3c(nnc3-c3ccccc3OC)SC2)cc1 [Entry 18] | 35 to 70 | < 5 | 
COc1ccccc1-c1nnc2n1N=C(c1ccc(N3CCOCC3)cc1)CS2 [Entry 25] | > 70 | 5 to 50 | 
CCOc1ccccc1-c1nnc2n1N=C(c1ccc(NCC(=O)O)cc1)CS2 [Entry 40a] |  |  | Emax ([1]; Homo sapiens): 23%; EC50 [1, 6]: 0.32 µM
COc1ccccc1-c1nnc2n1N=C(c1ccc([N+](=O)[O-])cc1)CS2 |  |  | EC50 (CXCR4; [5]): > 80 µM
COc1ccc(C2=Nn3c(nnc3-c3ccccc3OC)SC2)cc1 [Entry 1] |  | < 5 | TANGO β-arrestin Emax (%) (CXCR4; normalized to SDF-1): B (35 < B < 70); EC50 (CXCR4; [5]): 0.054 µM; ß-arrestin recruitment Emax (%) (CXCR4): 45%
COc1cc(-c2nnc3n2N=C(c2ccc(Br)cc2)CS3)cc(OC)c1OC [Entry 62] |  | < 5 | TANGO β-arrestin Emax (%) (CXCR4; normalized to SDF-1): B (35 < B < 70)
COc1ccc(C2=Nn3c(nnc3-c3ccccc3)SC2)cc1 [Entry 51] | 35 to 70 | 5 to 50 | 
COc1ccc(C2=Nn3c(nnc3-c3cccc(OC)c3)SC2)cc1 [Entry 60] | 35 to 70 | < 5 | 
COc1ccccc1-c1nnc2n1N=C(c1ccc(C)cc1)CS2 [Entry 17] | 35 to 70 | < 5 | 
COc1cccc(-c2nnc3n2N=C(c2ccccc2)CS3)c1 [Entry 58] |  | > 80 | 
COc1ccc(C2=Nn3c(nnc3-c3ccccc3)SC2)cc1OC [Entry 52] |  | > 80 | 
COc1cc(-c2nnc3n2N=C(c2ccccc2)CS3)cc(OC)c1OC [Entry 61] |  | > 80 | 
